Test results published in paper PMC12419160 (The Journal of Cell Biology, 2025).

Biological target: T1, PILS-Nir1 (6xHis-tagged LNS2 domain of Nir1) (Homo sapiens, UniProt Q9BZ71)
T1 construct: gene PITPNM3; LNS2 (PILS) domain, residues 609-912 in Methods but 604-912 in Results; TEV-cleavable N-terminal 6xHis tag (pTHT), codon-optimised, expressed in E. coli BL21(DE3) RIPL
T1 sequence (Q9BZ71 609-912): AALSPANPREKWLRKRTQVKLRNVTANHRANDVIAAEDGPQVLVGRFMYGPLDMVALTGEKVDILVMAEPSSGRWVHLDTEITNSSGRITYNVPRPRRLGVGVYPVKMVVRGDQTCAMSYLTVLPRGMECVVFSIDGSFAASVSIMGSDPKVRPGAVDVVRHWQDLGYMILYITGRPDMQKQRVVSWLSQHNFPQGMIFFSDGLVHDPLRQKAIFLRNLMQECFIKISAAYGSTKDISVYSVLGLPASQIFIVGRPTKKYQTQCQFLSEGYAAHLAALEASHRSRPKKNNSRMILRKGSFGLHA
Assay: liposome cosedimentation, SDS-PAGE densitometry
Format: binding
Conditions: 20 mol% PA / 80 mol% PC liposomes, 20 mM Tris pH 7.5, 150 mM NaCl; one-site fit with background; 95% C.I. 110.1–789.9 µM

Kd: 422 µM
Substance: phosphatidic acid [PA]
